The test system of data set [1] is Cavia porcellus. The data set is described as follows: Antitussive activity in Dunkin-Hartley guinea pig assessed as inhibition of electrically-stimulated vagus nerve-induced cough at 100 mg/kg, po administered compound prior to electrical stimulation of vagus nerve measured at 20 to 40 mins relative to control. It is filed as functional.
Data set [2] has as its system Cavia porcellus. The data set is described as follows: Antitussive activity in po dosed Dunkin-Hartley guinea pig assessed as inhibition of electrically-stimulated vagus nerve-induced cough administered compound prior to electrical stimulation of vagus nerve measured at 20 to 40 mins. It is filed as functional.
Data set [3] concerns Cavia porcellus. The data set is described as follows: Toxicity in Dunkin-Hartley guinea pig assessed as effect on cardiovascular system at 100 mg/kg, po. In kind it is organism-based. More on the design: dose 100 mg/kg, route oral. To be noted: in vivo.
Data set [4] relates to Cavia porcellus. The data set can be described thus: Toxicity in Dunkin-Hartley guinea pig assessed as effect on central nervous system at 100 mg/kg, po. It is filed as organism-based. Further details: dose 100 mg/kg, route oral. Conditions: in vivo.
Data set [5] deals with Cavia porcellus. The data set is described as follows: Toxicity in Dunkin-Hartley guinea pig assessed as gastrointestinal effect at 100 mg/kg, po. To be noted: in vivo. In kind it is organism-based. More on the design: dose 100 mg/kg, route oral.

The results in this text go back to ChEMBL document CHEMBL3243973, “Synthesis and antitussive activity of aminotetra- (and -hexa-) hydrodibenzofurans” (J Med Chem, 1977).

Broadly, the inhibition in vivo is how much of the control response was suppressed. Turning to `Cc1ccc2c(c1)[C@]1(C)CC(NC(=O)CCN3CCN(C)CC3)C(=O)C[C@@H]1O2` (stereo partly drawn), in the data set with Cavia porcellus [1], the inhibition in vivo at 100 mg/kg was 12.5%.

`CCN(CC)CCC(=O)N[C@H]1C(=O)CC[C@@]2(C)c3cc(C)ccc3O[C@@H]12`: the inhibition in vivo at 100 mg/kg with Cavia porcellus [1] came out at 33%. In the case of `Cc1ccc2c(c1)[C@]1(C)CCC(=O)[C@H](N)[C@@H]1O2`, the inhibition in vivo at 100 mg/kg in the data set on Cavia porcellus [1] was determined as 33%. A word on the ED50: it is the dose that gives a 50% effect, or the effect in half of the subjects. Turning to `Cc1cc([N+](=O)[O-])c2c(c1)[C@]1(C)CCC(=O)[C@H](NC(=O)CCN3CCN(C)CC3)[C@@H]1O2`, in the data set with Cavia porcellus [2], the ED50 stood at 34 mg/kg. Further, the inhibition in vivo at 100 mg/kg in the data set on Cavia porcellus [1] is above 80%. In the case of `Cc1ccc2c(c1)[C@]1(C)CCC(=O)[C@H](NC(=O)CCN(C)C)[C@@H]1O2`, the inhibition in vivo at 100 mg/kg in the data set with Cavia porcellus [1] turned out to be 79%. As for `Cc1ccc2c(c1)[C@]1(C)CCC(O)[C@H](NCCCN3CCN(C)CC3)[C@@H]1O2` (stereo partly drawn), the inhibition in vivo at 100 mg/kg in the data set on Cavia porcellus [1] came to 62%.

In the case of `Cc1ccc2c(c1)[C@]1(C)CCC(=O)[C@H](NC(=O)CCN(C)CCN(C)C)[C@@H]1O2`, the inhibition in vivo at 100 mg/kg with Cavia porcellus [1] came out at 50%. Same read-out and setting: next, `CC(=O)N1CCN(CCC(=O)N[C@H]2C(=O)CC[C@@]3(C)c4cc(C)ccc4O[C@@H]23)CC1`: 33%. Take `Cc1ccc2c(c1)[C@]1(C)C=C(NC(=O)CN3CCOCC3)C(O)C[C@@H]1O2` (stereo partly drawn): in the data set on Cavia porcellus [1], the inhibition in vivo at 100 mg/kg came to 29%.

On to `Cc1ccc2c(c1)[C@]1(C)C=C(C(=O)NCCN3CCN(C)CC3)C(=O)C[C@@H]1O2`, for which the inhibition in vivo at 100 mg/kg in the data set with Cavia porcellus [1] turned out to be 62.5%. With `CC(=O)c1cc(C)cc(C2(C)C=C(NC(=O)CCN3CCN(C)CC3)C(=O)CC2)c1O` (stereo not drawn), the inhibition in vivo at 100 mg/kg in the data set with Cavia porcellus [1] was 22%.

Turning to `Cc1ccc2c(c1)[C@]1(C)CCC(O)=C(C(=O)NCCN3CCN(C)CC3)[C@@H]1O2`, in the data set with Cavia porcellus [1], the inhibition in vivo at 100 mg/kg turned out to be 61%. Turning to `Cc1ccc2c(c1)[C@]1(C)CCC(=O)[C@H](NC(=O)OCCN3CCN(C)CC3)[C@@H]1O2`, the inhibition in vivo at 100 mg/kg with Cavia porcellus [1] is 33%.

For `Cc1ccc2c(c1)[C@]1(C)C=C(NC(=O)CCN(C)C)C(=O)C[C@@H]1O2`, in the data set on Cavia porcellus [1], the inhibition in vivo at 100 mg/kg came out at 58%. Turning to `CC(=O)N[C@H]1C(=O)CC[C@@]2(C)c3cc(C)ccc3O[C@@H]12`, the inhibition in vivo at 100 mg/kg in the data set on Cavia porcellus [1] was determined as 25%. With `Cc1ccc2c(c1)[C@]1(C)CCC(=O)[C@H](NC(=O)CCN3CCN(C)CC3)[C@@H]1O2.Cl`, the ED50 in the data set on Cavia porcellus [2] is 32.5 mg/kg. In addition, the Activity entry with Cavia porcellus [3], in the data set on Cavia porcellus [4] and with Cavia porcellus [5] was “Non-toxic” in each case. Besides, the inhibition in vivo at 100 mg/kg in the data set with Cavia porcellus [1] is above 80%. Take `Cc1ccc2c(c1)[C@]1(C)CCC(=O)[C@H](NC(=O)CCOCCN(C)C)[C@@H]1O2`: the inhibition in vivo at 100 mg/kg with Cavia porcellus [1] was found to be 37%.

In the case of `Cc1ccc2c(c1)[C@]1(C)C=C(NC(=O)CN3CCOCC3)C(=O)C[C@@H]1O2`, the inhibition in vivo at 100 mg/kg in the data set with Cavia porcellus [1] was 31%. Regarding `Cc1ccc2c(c1)[C@]1(C)CCC(=O)[C@H](NC(=O)CCN3CCNCC3)[C@@H]1O2`, the inhibition in vivo at 100 mg/kg in the data set on Cavia porcellus [1] worked out at 75%. As for `Cc1ccc2c(c1)[C@]1(C)CCC(=O)[C@H](NC(=O)CN3CCN(C)CC3)[C@@H]1O2`, the inhibition in vivo at 100 mg/kg in the data set on Cavia porcellus [1] amounted to 43%. Take `Cc1ccc2c(c1)[C@]1(C)CCC3(OCCO3)[C@H](NC(=O)CCN3CCN(C)CC3)[C@@H]1O2`: in the data set with Cavia porcellus [1], the inhibition in vivo at 100 mg/kg amounted to 11%.

Turning to `CCN(CC(=O)N[C@H]1C(=O)CC[C@@]2(C)c3cc(C)ccc3O[C@@H]12)Cc1ccccc1`, the inhibition in vivo at 100 mg/kg with Cavia porcellus [1] was 9%. For the molecule `Cc1ccc2c(c1)[C@]1(C)CCC(=O)[C@H](NC(=O)CCN3CCCC3)[C@@H]1O2`, in the data set with Cavia porcellus [1], the inhibition in vivo at 100 mg/kg was determined as 44%. As for `CCOC(=O)N1CCN(CCC(=O)N[C@H]2C(=O)CC[C@@]3(C)c4cc(C)ccc4O[C@@H]23)CC1`, in the data set with Cavia porcellus [1], the inhibition in vivo at 100 mg/kg came out at 33%.

With `Cc1ccc2c(c1)[C@]1(C)CCC(=O)[C@H](NC(=O)CCN3CCN(Cc4ccccc4)CC3)[C@@H]1O2`, the inhibition in vivo at 100 mg/kg in the data set with Cavia porcellus [1] amounted to 33%. Take `Cc1ccc2c(c1)[C@]1(C)CCC3(SCCS3)[C@H](NC(=O)CCN3CCN(C)CC3)[C@@H]1O2`: the inhibition in vivo at 100 mg/kg with Cavia porcellus [1] was 46%. With `COc1ccc2c3c1O[C@H]1[C@@H](O)C=C[C@H]4[C@@H](C2)N(C)CC[C@@]341` [CODEINE], the ED50 in the data set with Cavia porcellus [2] was 38.5 mg/kg. For the same molecule, the inhibition in vivo at 100 mg/kg in the data set on Cavia porcellus [1] was above 80%. In the case of `Cc1ccc2c(c1)[C@]1(C)C=C(NC(=O)CN(C)C)C(=O)C[C@@H]1O2`, the inhibition in vivo at 100 mg/kg with Cavia porcellus [1] was determined as 33%. With `CCN1CCN(CCC(=O)N[C@H]2C(=O)CC[C@@]3(C)c4cc(C)ccc4O[C@@H]23)CC1`, the inhibition in vivo at 100 mg/kg in the data set on Cavia porcellus [1] was 8%. For `Cc1ccc2c(c1)[C@]1(C)CCC(=O)[C@H](NC(=O)CCN3CCOCC3)[C@@H]1O2`, the inhibition in vivo at 100 mg/kg in the data set on Cavia porcellus [1] stood at 39%.

On to `Cc1ccc2c(c1)[C@]1(C)C=C(NC(=O)CCN3CCN(C)CC3)C(=O)C[C@@H]1O2`, for which, in the data set on Cavia porcellus [1], the inhibition in vivo at 100 mg/kg is 25%. `CC(=O)c1cc(C)cc2c1O[C@H]1[C@@H](NC(=O)CCN3CCN(C)CC3)C(=O)CC[C@@]21C`: in the data set with Cavia porcellus [1], the inhibition in vivo at 100 mg/kg was 42%. With `Cc1ccc2c(c1)[C@]1(C)CCC(=O)[C@H](NC(=O)CN3CCCC3)[C@@H]1O2`, the inhibition in vivo at 100 mg/kg in the data set with Cavia porcellus [1] came out at 17%. Take `Cc1ccc2c(c1)[C@]1(C)CCC(=O)[C@H](NC(=O)CCCCCN(C)C)[C@@H]1O2`: in the data set with Cavia porcellus [1], the inhibition in vivo at 100 mg/kg amounted to 25%. `Cc1ccc2c(c1)[C@]1(C)CCC(O)[C@H](NC(=O)CCN3CCN(C)CC3)[C@@H]1O2` (stereo partly drawn): the inhibition in vivo at 100 mg/kg in the data set on Cavia porcellus [1] was 12%. For `Cc1ccc2c(c1)[C@]1(C)C=C(NC(=O)Cn3cccc3)C(=O)C[C@@H]1O2`, the inhibition in vivo at 100 mg/kg in the data set on Cavia porcellus [1] was 42%.

Consider `Cc1ccc2c(c1)[C@]1(C)CCC(=O)[C@H](NC(=O)CCCCN(C)C)[C@@H]1O2.Cl`, for which the ED50 in the data set on Cavia porcellus [2] came to 71 mg/kg. Besides, the inhibition in vivo at 100 mg/kg in the data set on Cavia porcellus [1] was above 80%.

As to `Cc1ccc2c(c1)[C@]1(C)CC/C(=N\NC(N)=O)[C@H](NC(=O)CCN3CCN(C)CC3)[C@@H]1O2`, in the data set with Cavia porcellus [1], the inhibition in vivo at 100 mg/kg was 25%. As to `Cc1ccc2c(c1)[C@]1(C)CCC[C@H](NC(=O)CCN3CCN(C)CC3)[C@@H]1O2`, in the data set on Cavia porcellus [1], the inhibition in vivo at 100 mg/kg worked out at 46%. Turning to `Cc1ccc2c(c1)[C@]1(C)CC/C(=N\O)[C@H](NC(=O)CCN3CCN(C)CC3)[C@@H]1O2`, in the data set with Cavia porcellus [1], the inhibition in vivo at 100 mg/kg was 55%.

For `Cc1ccc2c(c1)[C@]1(C)CCC(=O)[C@H](NC(=O)CCCN3CCN(C)CC3)[C@@H]1O2`, the inhibition in vivo at 100 mg/kg in the data set with Cavia porcellus [1] was 72%. In the case of `Cc1ccc2c(c1)[C@]1(C)CCC(=O)[C@H](NC(=O)CCN3CCN(CCO)CC3)[C@@H]1O2`, the inhibition in vivo at 100 mg/kg in the data set on Cavia porcellus [1] came out at 17%. As to `Cc1ccc2c(c1)[C@]1(C)CCC(=O)[C@H](NC(=O)CCN3CCCCC3)[C@@H]1O2`, the inhibition in vivo at 100 mg/kg with Cavia porcellus [1] was found to be 46%. As for `Cc1ccc2c(c1)[C@]1(C)C=C(NC(=O)CN3CCCCC3)C(=O)C[C@@H]1O2`, the inhibition in vivo at 100 mg/kg with Cavia porcellus [1] was found to be 17%.

Regarding `Cc1ccc2c(c1)[C@]1(C)CCC(=O)[C@H](NC(=O)CCCN(C)C)[C@@H]1O2`, the inhibition in vivo at 100 mg/kg in the data set with Cavia porcellus [1] is 67%. `Cc1ccc2c(c1)[C@]1(C)CCC(=O)[C@H](NC(=O)CCN3CCN(c4ccccc4)CC3)[C@@H]1O2`: in the data set on Cavia porcellus [1], the inhibition in vivo at 100 mg/kg was 54%.
